From EP4206196A1, “PYRIMIDINE SUBSTITUTED DERIVATIVES AS TYK2 INHIBITORS” (Almirall S.A., priority 2021, dated 2023)
“And” between values parts separate entries of the source, which are not always exact repeats. Equal entries are not always repeated. Where two headings read alike, the source gives them in different places.

Experiments:
STAT6 through JAK1/JAK3 = experiment: IL4 induced STAT phosphorylation in Ramos cells (STAT6-bla reporter gene); type: cell-based; details: compound concentration 5 µM; for inhibition at 5 µM: Homo sapiens, Ramos
Experimental: Stimulation of RAMOS cells with interleukine IL-4 activates the signaling pathway of STAT6 through JAK1/JAK3. In this assay, measurement of the activity of the reporter gene β-lactamase expression was used as the readout.
Ramos STAT6-bla RA-1 cell line were purchased from Life Technologies (ref. #K1243) and cultured as specified by the provider. A number of 30.000 cells per well (35 µl) were plated in a 384-well plate (Corning ref.# 3712) and cultured overnight at 37°C with 5% CO2 in a complete Optimem media (Life Technologies ref. #11058-021) containing 556 µg/mL CD40 (Life Technologies ref. #PHP0025), 0.5% (v/v) heat inactivated FBS (Life Technologies ref. #10082-147), 10 µM non-essential aminoacids NEAA (Sigma ref. #M7145), 100 µM Sodium Pyruvate (Gibco ref. #11360-039) and 100 U/mL Penicillin (Sigma ref. #P0781). Compounds were initially dissolved in 100% DMSO. Compound curves were then prepared using a 1/5 serial dilution (10 dilutions). The dilutions were directly diluted in complete Optimem media without CD40 at 40-fold their final concentration in 20% DMSO. IL-4 initial solution (Prepotech ref. #200-04) was prepared at 10-fold its EC80 in complete Optimem media without CD40. Compounds and IL-4 were added simultaneously to the wells with cells and incubated during 4 hours at 37°C (the final DMSO was 0.1%). The β-lactamase substrate (LifeTechnologies ref.#K1138) was prepared at 6-fold its final concentration as specified by the provider. Then 10 µL of the mixture was added to the wells to stop the stimulation. Plate was left in the dark over-night. Then a FRET reading was performed on an appropriate plate reader.
All experiments were analysed using an ExcelFit template and the four-parameter log equation. As % vs compound concentration. TABLE 3: Inhibition of IL4 induced STAT phosphorylation in Ramos cells.

[1] = target: T1, TYK2 (JH2domain-pseudokinase) (Homo sapiens, UniProt P29597); experiment: TYK2 JH2 domain binding assay (KINOMEscan)
T1 construct: TYK2 (JH2domain-pseudokinase)-tagged T7 phage strains were prepared in an E. coli host derived from the BL21 strain; made in house; host or cells: E. coli BL21-derived host (T7 phage) or HEK-293 cells
T1 sequence (P29597 589-875 limits assumed): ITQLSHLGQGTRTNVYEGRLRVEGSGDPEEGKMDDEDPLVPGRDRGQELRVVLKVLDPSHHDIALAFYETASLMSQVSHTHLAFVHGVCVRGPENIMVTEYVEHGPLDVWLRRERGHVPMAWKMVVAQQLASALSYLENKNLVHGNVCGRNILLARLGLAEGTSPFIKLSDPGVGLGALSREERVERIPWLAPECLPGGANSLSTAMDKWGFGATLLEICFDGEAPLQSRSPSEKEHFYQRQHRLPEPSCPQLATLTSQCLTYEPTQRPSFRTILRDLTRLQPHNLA
Outline: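 Competition binding of DNA-tagged TYK2 JH2 pseudokinase domain against immobilised affinity ligand, 1 h at room temperature in SeaBlock/PBS/Tween/DTT buffer with about 1% DMSO. Bound kinase eluted and quantified by qPCR. Kd taken from 11-point 3-fold series, usually 30,000 nM top, fitted by Levenberg-Marquardt nonlinear least squares.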

[2] = tested on: STAT1/3 through TYK2/JAK1; experiment: IFNa induced STAT phosphorylation in HEK293 cells (SIE-bla reporter gene); type: cell-based; details: HEK293T-sie-bla cells, IFNa at EC80, 4 hours, read-out: Inhibition of IFNa induced STAT phosphorylation HEK293 cells IC50
Outline: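 HEK293T cells carrying a SIE-driven β-lactamase reporter were co-treated with compound (1/5 serial dilution, 10 points, 0.1% DMSO final) and IFNa at EC80 for 4 h at 37°C. β-Lactamase substrate was added to stop the stimulation, followed by overnight dark incubation and FRET read. IC50 from a four-parameter logistic fit.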

Row | Compound | Kd [1] [nM] | IC50 ([2]; Homo sapiens, HEK293) [nM] | IC50 [2] [nM] | inhibition at 5 µM (STAT6 through JAK1/JAK3) [%] | % Inhibition of IL4 induced STAT phosphorylation Ramos cells (STAT6 through JAK1/JAK3; 5 µM)
1 | COc1c(Nc2cc(Nc3cc(C)nc(C)n3)ncn2)cccc1-c1ncn(C)n1 [Example 4, N6-(2,6-dimethylpyrimidin-4-yl)-N4-[2-methoxy-3-(1-methyl-1,2,4-triazol-3-yl)phenyl]pyrimidine-4,6-diamine] | 0.2 to 1 | 10 to 100 | – | 33 | –
2 | Cc1cc(Nc2cc(Nc3ccc(C4CC4)cc3N(C)S(C)(=O)=O)ncn2)nc(C)n1 [Example 70, N-[5-cyclopropyl-2-[[6-[(2,6-dimethylpyrimidin-4-yl)amino]pyrimidin-4-yl]amino]phenyl]-N-methyl-methanesulfonamide] | < 0.2 | < 10 | – | – | 78% and 55%
3 | Cc1c(-c2cnc(Nc3cc(NC(=O)[C@H]4C[C@H]4F)ncn3)c(N(C)S(C)(=O)=O)c2)cnn1C [Example 160, (1R,2R)-N-[6-[[5-(1,5-dimethylpyrazol-4-yl)-3-[methyl(methylsulfonyl)amino]-2-pyridyl]amino]pyrimidin-4-yl]-2-fluoro-cyclopropanecarboxamide] | < 0.2 | 10 to 100 | – | – | –
4 | Cc1c(-c2cnc(Nc3cc(NC(=O)C4CC4)ncn3)c(P(C)(C)=O)c2)cnn1C [Example 161, N-[6-[[3-dimethylphosphoryl-5-(1,5-dimethylpyrazol-4-yl)-2-pyridyl]amino]pyrimidin-4-yl]cyclopropanecarboxamide] | < 0.2 | 10 to 100 | – | – | –
5 | COc1cc(-c2cnn(C)c2)c(C)nc1Nc1cc(Nc2cc(C)ncn2)ncn1 [Example 165, N4-[3-methoxy-6-methyl-5-(1-methylpyrazol-4-yl)-2-pyridyl]-N6-(6-methylpyrimidin-4-yl)pyrimidine-4,6-diamine] | 0.2 to 1 | 100 to 1000 | – | – | –
6 | CN=S(C)(=O)c1cc(-c2cnn(C)c2C)cnc1Nc1cc(Nc2cc(C)nc(C)n2)ncn1 (stereo not shown) [Example 168, N6-[5-(1,5-dimethylpyrazol-4-yl)-3-(N,S-dimethylsulfonimidoyl)-2-pyridyl]-N4-(2,6-dimethylpyrimidin-4-yl)pyrimidine-4,6-diamine] | < 0.2 | < 10 | – | – | –
7 | COCCn1cnc(-c2ccnc(Nc3cc(Nc4cc(C)nc(C)n4)ncn3)c2OC)n1 [Example 169, N6-(2,6-dimethylpyrimidin-4-yl)-N4-[3-methoxy-4-[1-(2-methoxyethyl)-1,2,4-triazol-3-yl]-2-pyridyl]pyrimidine-4,6-diamine] | < 0.2 | 10 to 100 | – | – | –
8 | Cc1cc(Nc2cc(Nc3ncccc3C(C)(C)O)ncn2)nc(C)n1 [Example 172, 2-[2-[[6-[(2,6-dimethylpyrimidin-4-yl)amino]pyrimidin-4-yl]amino]pyridin-3-yl]propan-2-ol] | 0.2 to 1 | 100 to 1000 | – | – | –
9 | COc1cc(-c2cnn(C)c2C)c(C)nc1Nc1cc(Nc2cc(C)ncn2)ncn1 [Example 176, N6-[5-(1,5-dimethylpyrazol-4-yl)-3-methoxy-6-methyl-2-pyridyl]-N4-(6-methylpyrimidin-4-yl)pyrimidine-4,6-diamine] | 0.2 to 1 | 10 to 100 | – | – | –
10 | N4-(2,6-dimethylpyrimidin-4-yl)-N6-(3-methoxy-5-tetrahydropyran-2-yl-2-pyridyl)pyrimidine-4,6-diamine [Example 166] | 1 to 10 | – | 100 to 1000 | – | –
11 | N4-(2,6-dimethylpyrimidin-4-yl)-N6-[2-ethoxy-3-(1-methyl-1,2,4-triazol-3-yl)phenyl]pyrimidine-4,6-diamine [Example 45] | 0.2 to 1 | – | 100 to 1000 | – | –

More lines, main results first:

Row | Kd [1] [nM] | IC50 ([2]; Homo sapiens, HEK293) [nM] | IC50 [2] [nM] | Compound | inhibition at 5 µM (STAT6 through JAK1/JAK3) [%] | % Inhibition of IL4 induced STAT phosphorylation Ramos cells (STAT6 through JAK1/JAK3; 5 µM)
12 | 1 to 10 | 100 to 1000 | – | COc1c(Nc2cc(NC(=O)C3CC3)ncn2)cccc1-c1ncn(C)n1 [Example 1, N-[6-[2-methoxy-3-(1-methyl-1,2,4-triazol-3-yl)anilino]pyrimidin-4-yl]cyclopropanecarboxamide] | 25 | –
13 | 0.2 to 1 | 10 to 100 | – | COc1c(C)cccc1Nc1cc(Nc2cc(C)nc(C)n2)ncn1 [Example 6, N6-(2,6-dimethylpyrimidin-4-yl)-N4-(2-methoxy-3-methyl-phenyl)pyrimidine-4,6-diamine] | 62 | –
14 | < 0.2 | > 1000 | – | Cc1cc(Nc2cc(Nc3ccccc3N(C)S(C)(=O)=O)ncn2)nc(C)n1 [Example 12, N-[2-[[6-[(2,6-dimethylpyrimidin-4-yl)amino]pyrimidin-4-yl]amino]phenyl]-N-methyl-methanesulfonamide] | 46 | –
15 | < 0.2 | < 10 | – | Cc1cc(Nc2cc(Nc3ccc(-c4cnn(C)c4C)cc3N(C)S(C)(=O)=O)ncn2)nc(C)n1 [Example 25, N-[5-(1,5-dimethylpyrazol-4-yl)-2-[[6-[(2,6-dimethylpyrimidin-4-yl)amino]pyrimidin-4-yl]amino]phenyl]-N-methyl-methanesulfonamide] | 57 | –
16 | < 0.2 | < 10 | – | CN(c1ccccc1Nc1cc(Nc2cccc(C#N)n2)ncn1)S(C)(=O)=O [Example 32, N-[2-[[6-[(6-cyano-2-pyridyl)amino]pyrimidin-4-yl]amino]phenyl]-N-methyl-methanesulfonamide] | 70 | –
17 | < 0.2 | 10 to 100 | – | COc1c(Nc2cc(Nc3cc(C)nc(C)n3)ncn2)cccc1-c1noc(C)n1 [Example 37, N4-(2,6-dimethylpyrimidin-4-yl)-N6-[2-methoxy-3-(5-methyl-1,2,4-oxadiazol-3-yl)phenyl]pyrimidine-4,6-diamine] | 44 | –
18 | < 0.2 | < 10 | – | Cc1cc(Nc2cc(Nc3nc(C)c(-c4cnn(C)c4)cc3N(C)S(C)(=O)=O)ncn2)ncn1 [Example 162, N-methyl-N-[6-methyl-5-(1-methylpyrazol-4-yl)-2-[[6-[(6-methylpyrimidin-4-yl)amino]pyrimidin-4-yl]amino]-3-pyridyl]methanesulfonamide] | – | –
19 | < 0.2 | < 10 | – | Cc1cc(Nc2cc(Nc3nc(C)c(-c4cnn(C)c4C)cc3N(C)S(C)(=O)=O)ncn2)ncn1 [Example 163, N-[5-(1,5-dimethylpyrazol-4-yl)-6-methyl-2-[[6-[(6-methylpyrimidin-4-yl)amino]pyrimidin-4-yl]amino]-3-pyridyl]-N-methyl-methanesulfonamide] | – | –
20 | < 0.2 | 10 to 100 | – | CN=S(C)(=O)c1cccnc1Nc1cc(Nc2cc(C)nc(C)n2)ncn1 (stereo not shown) [Example 164, N4-(2,6-dimethylpyrimidin-4-yl)-N6-[3-(N,S-dimethylsulfonimidoyl)-2-pyridyl]pyrimidine-4,6-diamine] | – | –
21 | < 0.2 | < 10 | – | Cc1cc(Nc2cc(Nc3ncc(C4CCCCO4)cc3N(C)S(C)(=O)=O)ncn2)nc(C)n1 (stereo not shown) [Example 167, N-[2-[[6-[(2,6-dimethylpyrimidin-4-yl)amino]pyrimidin-4-yl]amino]-5-tetrahydropyran-2-yl-3-pyridyl]-N-methyl-methanesulfonamide] | – | –
22 | < 0.2 | 10 to 100 | – | Cc1cc(Nc2cc(Nc3ncc(-c4ocnc4C)cc3N(C)S(C)(=O)=O)ncn2)nc(C)n1 [Example 170, N-[2-[[6-[(2,6-dimethylpyrimidin-4-yl)amino]pyrimidin-4-yl]amino]-5-(4-methyl-1,3-oxazol-5-yl)pyridin-3-yl]-N-methylmethanesulfonamide] | – | –
23 | < 0.2 | 10 to 100 | – | Cc1cc(Nc2cc(Nc3ncc(C4CC4)cc3P(C)(C)=O)ncn2)nc(C)n1 [Example 171, 4-N-(5-cyclopropyl-3-dimethylphosphorylpyridin-2-yl)-6-N-(2,6-dimethylpyrimidin-4-yl)pyrimidine-4,6-diamine] | – | –
24 | 0.2 to 1 | – | 100 to 1000 | N4-(2,6-dimethylpyrimidin-4-yl)-N6-[4-(3-methylimidazol-4-yl)-2-methylsulfonyl-phenyl]pyrimidine-4,6-diamine [Example 26] | – | –
25 | < 0.2 | – | < 10 | N-[5-(1,5-dimethylpyrazol-4-yl)-2-[[6-[(2,6-dimethylpyrimidin-4-yl)amino]pyrimidin-4-yl]amino]-3-pyridyl]-N-(trideuteriomethyl)methanesulfonamide [Example 133] | – | –
